Laboratory results from PMC6161288, “Bioavailability of Eurycomanone in Its Pure Form and in a Standardised Eurycoma longifolia Water Extract” (Pharmaceutics, 2018).
Counter-ions that a name gives are not always drawn.

Assays:
Aqueous solubility = format: physicochemical
Description: The aqueous […] was estimated by adding 10 µL of eurycomanone stock solution (10 mM) to 490 µL of aqueous buffer at pH 5.4, pH 7.4 and DMSO in triplicates in deep-well plates. […] The plate was kept on a shaker (300 rpm) at room temperature for 16 h. The plate was then centrifuged at 25 °C, 4000 rpm for 25 min. The supernatant was transferred and analysed using LC-MS/MS.
Peak area 1 = peak area of the compound in 2% DMSO at the different pH levels.
Peak area 2 = peak area of the compound in 100% DMSO.

[1] = Lipophilicity, shake flask method with octanol and buffer (pH 7.4); format: physicochemical; conditions: pH 7.4
Description: The lipophilicity of eurycomanone was estimated using the shake flask method with octanol and buffer (pH 7.4). Eurycomanone (5 µL) at 5 mM concentration is added to octanol (495 µL) and DMSO (495 µL) and also into the aqueous and octanol phase in a 1:1 ratio ([…] of octanol phase and 247.5 µL of aqueous phase). The octanol and aqueous phases were prepared using a saturation process, where equal amounts of D-PBS (pH 7.4) and octanol were saturated (300 rpm, room temperature) for 24 h before being separated and kept at room temperature. The prepared mixtures were vortexed and kept on the shaker (300 rpm) at room temperature for 16 h. The mixtures were allowed to stand for 30 min, and 200 µL of solution was transferred and sent for HPLC analysis.

[2] = Caco-2 cell permeability assay; format: in vitro ADME; conditions: human, Caco-2, Efflux Ratio
Description: The Caco-2 assay was carried out after seeding the cells onto the membrane to form a confluent monolayer in 21 days. The media is removed from apical (A) and basolateral (B) chambers and the membrane is washed with HBSS buffer. Eurycomanone (10 µM, 200 µL) was added to the A compartment (which represents the intestinal lumen), and buffer (300 µL) was added to the B compartment (representing the blood), and vice versa. The plate was kept in a shaking incubator (37 °C) for 1 h. The amount of eurycomanone that had permeated across the cells was measured by LC-MS/MS, and the apparent permeability (Papp) values and efflux ratio were calculated. The expression of P-glycoprotein (P-gp) by differentiated Caco-2 cells was confirmed by measuring the Papp value and efflux ratio of vinblastine with and without the presence of a competing P-gp substrate, cyclosporine A. Eurycomanone was also measured with the presence of cyclosporine A to investigate whether eurycomanone may be transported via P-gp transporters.

Row | Aqueous solubility (Aqueous solubility; pH 5.4) | Aqueous solubility (Aqueous solubility; pH 7.4) | logD at 16 h [1] | efflux ratio at 1 h, 10 µM [2] | SMILES
1 | moderate solubility | moderate solubility | 2.82 |  | C[C@]12CC[C@@H]3c4ccc(O)cc4CC[C@H]3[C@@H]1C[C@@H](O)[C@@H]2O [Estriol, estriol, reference compound]
2 |  |  |  | 14.7 | CC[C@]1(O)C[C@@H]2CN(CCc3c([nH]c4ccccc34)[C@@](C(=O)OC)(c3cc4c(cc3OC)N(C)[C@H]3[C@@](O)(C(=O)OC)[C@H](OC(C)=O)[C@]5(CC)C=CCN6CC[C@]43[C@@H]65)C2)C1 [Vinblastine, vinblastine, reference compound]
3 |  |  | 3.18 |  | CC/C(=C(/CC)c1ccc(O)cc1)c1ccc(O)cc1 [diethylstilbestrol]
4 |  |  | -0.29 |  | COCCc1ccc(OCC(O)CNC(C)C)cc1 (stereo not drawn) [metoprolol, metoprolol tartrate]
